Assay results from patent US20210177722A1, “Phytic Acid Ester Derivative” (NATIONAL UNIVERSITY CORPORATION KUMAMOTO UNIVERSITY, priority 2018, published 2021).

Assays:
[1] = tested on: Jurkat cell (human T-lymphocyte cell); assay: MTT assay, Jurkat cell; format: cell-based; conditions: Jurkat cell, 1 μM or 10 μM, 8 hours or 24 hours
Protocol: (§1) In this example, the cytotoxic effect of Pro-IP6 on four types of blood cancer cell lines and a cell derived from a healthy person was examined by MTT assay. […] It is possible to check viability of cultured cells by MTT assay. Cancer cell lines (1.74×10^4 cells/well, culture fluid: 200 μL) • MT-2 cell (HTLV transformed human T cell leukemia cell) • […] cell (human T-lymphoblastoid cell) • Jurkat cell (human T-lymphocyte cell) • K562 cell (chronic myelogenous leukemia cell) Each of the above-described types of cells was seeded in a 96-well plate, and was cultured for 8 hours for each of the various cancer cell lines and for 16 hours for PMBC. Thereafter, DMSO (1%, Fujifilm Wako Pure Chemical Corporation), an aqueous solution (1%) of IP6 (final concentration: 1 μM or 10 μM, Sigma Aldrich), or a DMSO solution (1%) of Pro-IP6 (final concentration: 1 μM or 10 μM) was added thereto, followed by culturing for 8 hours or 24 hours. An MTT reagent (Dojindo Laboratories, 1.1 mg/mL) was added in an amount of 50 μL per well, and the resultant was cultured for another 4 hours. The thus precipitated crystal was collected, a supernatant was removed, and 100 μL of DMSO was added thereto to completely dissolve. The resultant solution was measured for an absorbance (550 nm).

[2] = tested on: K562 cell (chronic myelogenous leukemia cell); assay: MTT assay, K562 cell; format: cell-based; conditions: 1 μM or 10 μM, 8 hours or 24 hours
Protocol: as §1

[3] = tested on: MT-2 cell (HTLV transformed human T cell leukemia cell); assay: MTT assay, MT-2 cell; format: cell-based; conditions: 1 μM or 10 μM, 8 hours or 24 hours
Protocol: as §1

[4] = tested on: S1T cell (ATL cell line) tumor; assay: Effect on HTLV-1 infected cell-transplanted mouse (ATL model); format: in vivo; conditions: day 28 after transplantation, 7.1 mg/kg per day intraperitoneally for 28 days, NSG mice with S1T cells
Text: In this example, the in vivo effect of Pro-IP6 on an HTLV-1 infected cell-transplanted mouse was checked. HTLV-1 (human T cell leukemia virus 1) mainly infects CD4-positive T lymphocyte, and when the infected cell cancerates, refractory malignant tumor, adult T-cell leukemia (ATL) is caused. In this example, S1T cell, that is, one of ATL cell lines, was used.
5-Week-old female NSG mice (NOD. Cg-Prkdc scid I12rg tm1Wjl/SzJ, Charles River Laboratories Japan, Inc.) were used. Five mice each in each of two cages, namely, ten mice in total, were raised with sterilized bedding (Pepar Clean: Japan SLC, Inc.) placed in a sterilized cage (Clea Japan, Inc.). […]
The control group was dosed with DMSO, and the IP6 administration group and the pro-IP6 administration group were intraperitoneally dosed respectively with IP6 in an amount of 7.1 mg/kg and pro-IP6 in an amount of 20 mg/kg. The mice were dosed continuously for 28 days after the day of the cell transplantation, and the weight and the tumor volume of each mouse were measured every day. The tumor volume was defined as (shorter diameter in mm)^2×(longer diameter in mm)×0.5, and the shorter diameter and the longer diameter were measured with a caliper. […] Subsequently, the tumor was totally removed, and the tumor volume and the tumor weight of each tumor were measured.

[5] = tested on: M8166 cell (human T-lymphoblastoid cell); assay: MTT assay, M8166 cell; format: cell-based; conditions: M8166 cell, 1 μM or 10 μM, 8 hours or 24 hours
Protocol: as §1

HeLa cell = assay: Quantitative determination of IP6 in cell (LC/MS of IP6 methyl ester); format: cell-based; conditions: HeLa cells, 10 μM, 30 minutes
Protocol: In this example, incorporation of Pro-IP6 into a HeLa cell was quantitatively determined.
HeLa cells (5×10^5 cells/well, culture fluid: 1 mL) were seeded in a 3.5 cm dish to be cultured for 24 hours. Thereafter, DMSO (1%, Fujifilm Wako Pure Chemical Corporation), an aqueous solution (1%) of IP6 (final concentration: 10 μM, Sigma Aldrich), or a DMSO solution (1%) of Pro-IP6 (final concentration: 10 μM) synthesized in Example 1 was added thereto, and the resultant was cultured for another 30 minutes. HeLa cells were cultured with neither IP6 nor Pro-IP6 added, followed by adding the same amount of DMSO thereto, and the resultant was used as a negative control.
Thereafter, the resultant was washed with 1× PBS (−) once, and the resultant cells were scraped with a cell scraper, transferred to a 1.5 mL tube, and washed with 1× PBS (−) three times. To the thus obtained precipitate, 350 μl of MeOH (Fujifilm Wako Pure Chemical Corporation) and 1% NP-40 (Nacalai Tesque, Inc.) were added, followed by sonication (10 minutes). After equilibrating a column (Oasis WAX 1cc, Waters) with MeOH (1 mL) and H2O (1 mL), a disrupted cell extract was added thereto. Thereafter, the column was washed with 50% MeOH (1 mL), and eluted with 50% MeOH (200 μL×2) containing 2 mol/L of HCl (Fujifilm Wako Pure Chemical Corporation). The thus obtained eluate was concentrated, and dissolved in MeOH (50 μL), and trimethylsilyldiazomethane (200 μl, Tokyo Chemical Industry Co., Ltd.) was added thereto, followed by stirring at 50° C. for 1 hour under argon atmosphere. The reaction was stopped by adding H2O (100 μL). Through a reaction of trimethylsilyidiazomethane with IP6, IP6 methyl ester is obtained.
The thus obtained sample (IP6 methyl ester) was measured by LC/MS [column: MastroC18 2.1 mm×100 mm, […] (Shimadzu GLC Ltd.), mobile phase: 0.1% formic acid solution (Fujifilm Wako Pure Chemical Corporation), acetonitrile (Fujifilm Wako Pure Chemical Corporation)] [LC:LC-20AD (Shimadzu), MS: amaZon speed (BRUKER)].

O=P(O)(O)O[C@H]1[C@H](OP(=O)(O)O)[C@@H](OP(=O)(O)O)[C@H](OP(=O)(O)O)[C@@H](OP(=O)(O)O)[C@H]1OP(=O)(O)O [IP6, myo-inostiol-1,2,3,4,5,6-hexaphosphate, reference compound]
cytotoxic effect [1]: minimally exhibited the effect | cytotoxic effect [2]: minimally exhibited the effect | cytotoxic effect [3]: minimally exhibited the effect | tumor volume compared with that of the control group [4]: not significantly different | cytotoxic effect [5]: minimally exhibited the effect | incorporation into HeLa cell (IP6 methyl ester by LC/MS vs negative control) (HeLa cell): substantially the same as that of the negative control
